Here are results for 14 compounds from patent US5629430A, “Trifluoromethylpyrroloindolecarboxylic acid ester and process for production thereof” (Kyorin Pharmaceutical Co., Ltd., priority 1992, dated 1997).

Structures are written as SMILES. Values after ≈ are worked out from the molar mass of the structure shown. Like-named read-outs stand apart in the source and are kept apart here.

Assay [1] concerns P388 mouse leukemia cells. Description: Activity against tumor cell growth (P388, MTT, 72 h). The assay is classed as cell-based. The note with it: read-out: IC50 (50% growth inhibition concentration). In outline: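 P388 cells at 1.5×10^5 cells/ml in RPMI1640 with 10% FBS, 2 mM glutamine and 5 μM 2-hydroxyethyldisulfide; DMSO-dissolved compound diluted in medium, 72 h at 37 °C, 5% CO2. MTT added for 3 h, formazan dissolved in HCl-isopropanol, A540 read. IC50 from absorbance ratio versus untreated cells.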

For the next assay, the system named is Sarcoma-180 cells. Description: Antineoplastic activity, mice having Sarcoma-180 cells transplanted subcutaneously. The assay is classed as in vivo, mouse (female, CDR strain). The note with it: Mus musculus, Sarcoma-180, iv, 144 h, read-out: T/C (average tumor weight, dosed vs. solvent-dosed control); for response vs control in vivo at 0.25 mg/kg: i.v. 0.25 mg/kg single dose; for response vs control in vivo at 0.5 mg/kg: i.v. 0.5 mg/kg single dose. The protocol: (§1) The test compound was dissolved in dimethylsulfoxide, and the solution was adequately diluted with 10% Emulfore EL620(produced by Rhone Poulenc Co.) to prepare the test compound solution. The antineoplastic activity was evaluated as below.
To the lateral region of a female mouse (CDR strain, 5 to 6 week age), 3.6×10^6 to 5×10^6 Sarcoma-180 cells were transplanted subcutaneously. Next day, the test medicine solution was injected into the tail vein in a single dose. Eight to twelve mice were employed for the solvent-dosed control group, and five mice were employed for the dosed group. Six days after the dosage, the tumor was cut out, and the weight thereof was measured. The antineoplastic effect was evaluated by the ratio (T/C) of the average tumor weight of the dosed group (T) to the average tumor weight of the solvent-dosed control group (C).

Another assay deals with Colon-26 cells. Briefly: Antineoplastic activity, mice having Colon-26 cells transplanted subcutaneously. It counts as in vivo, mouse (female, CDF1 strain). The note with it: Mus musculus, Colon 26, iv, 168 h, read-out: T/C (average tumor weight, dosed vs. solvent-dosed control); for response vs control in vivo at 0.25 mg/kg: i.v. 0.25 mg/kg single dose on sixth day; for response vs control in vivo at 0.5 mg/kg: i.v. 0.5 mg/kg single dose on sixth day. The protocol:
as §1
To the lateral region of a female mouse (CDF1 strain, 8 to 12 week age), 1×10^6 Colon-26 cells were transplanted subcutaneously. On the sixth day after the transplantation, the test medicine solution-was injected into the tail vein in a single dose. Seven to twelve mice were employed for the solvent-dosed control group, and five mice were employed for the dosed group. One week after the dosage, the tumor was cut out, and the weight thereof was measured. The antineoplastic effect was evaluated by the ratio (T/C) of the average tumor weight of the dosed group (T) to the average tumor weight of the solvent-dosed control group (C).

A further assay has as its system P388 cells. Briefly: Antineoplastic activity, mice having P388 cells transplanted in abdominal cavity. It counts as in vivo, mouse (female, CDF1 strain). The note with it: for T/C (average survival days, dosed vs. solvent-dosed control): next day after transplantation, >=130% effective. The protocol:
as §1
To the abdominal cavity of a female mouse (CDF1 strain, 8 to 9 week age), 1×10^6 P388 cells were transplanted. Next day, the test medicine solution was injected intraperitonealy in a single dose. Five to eight mice were employed for the solvent-dosed control group, and two mice were employed for each of the dosed groups. The antineoplastic effect was evaluated by the ratio (T/C, %) of the average survival days of the dosed group (T) to the average survival days of the solvent-dosed control group(C). The T/C ratio of 130% or more is evaluated to be effective.
"Cured": Survived for 60 days or longer

Setting [2] is: P388 mouse leukemia cells, 72 h, 37° C., MTT.
Setting [3] is: tumor weighed six days after dosage.
[4] abbreviates: tumor weighed one week after dosage.

Consider `COC(=O)c1c(C(F)(F)F)[nH]c2c(O)cc3c(c12)C(CCl)CN3C(=O)c1cc2cc(NC(=O)c3cc4c(OC)c(OC)c(OC)cc4cn3)ccc2[nH]1` (centres unmarked) [Example 18, Methyl 1-chloromethyl-5-hydroxy-7-trifluoromethyl-3-[5-[(5,6,7-trimethoxyisoquinolin-3-ylcarbonyl)amino]-1H-indol-2-ylcarbonyl]-1,2,3,6-tetrahydropyrrolo[3,2-e]indole-8-carboxylate], for which the IC50 in assay [1] (setting [2]) was determined as 0.09 ng/mL (≈ 0.12 nM). In addition, the response vs control in vivo at 0.25 mg/kg is 25% with Sarcoma-180 cells (setting [3]) and 7% in the assay on Colon-26 cells (setting [4]).
On to `COC(=O)c1c(C(F)(F)F)[nH]c2c(O)cc3c(c12)C(CCl)CN3C(=O)c1cc2cc(NC(=O)c3cc4ccccc4o3)ccc2[nH]1` (centres unmarked) [Example 10, Methyl 3-[5-[(benzofuran-2-ylcarbonyl)amino]-1H-indol-2-ylcarbonyl]-1-chloromethyl-5-hydroxy-7-trifluoromethyl-1,2,3,6-tetrahydropyrrolo[3,2-e]indole-8-carboxylate], for which the IC50 in assay [1] (setting [2]) was found to be 0.52 ng/mL (≈ 0.799 nM). In addition, the response vs control in vivo at 0.5 mg/kg in the assay on Sarcoma-180 cells (setting [3]) and in the assay on Colon-26 cells (setting [4]) was 15% in each case.
Take `COC(=O)c1c(C(F)(F)F)[nH]c2c(OC(=O)N3CCN(C)CC3)cc3c(c12)C(CBr)CN3C(=O)c1cc2cc(OC)c(OC)c(OC)c2[nH]1` (centres unmarked) [Example 47, Methyl 1-bromomethyl-5-(4-methylpiperazin-1-ylcarbonyl)oxy-7-trifluoromethyl-3-(5,6,7-trimethoxy-1H-indol-2-ylcarbonyl)-1,2,3,6-tetrahydropyrrolo[3,2-e]indole-8-carboxylate]: the IC50 in assay [1] (Mus musculus, P388, 72 h) turned out to be 31 ng/mL (≈ 41.2 nM). Further, the “T/C in words: cure (Survived for 60 days or longer)” value with P388 cells (i.p. 0.5 mg/kg single dose, two mice, Cured: Survived for 60 days or longer) is “Both cured”. Also, the response vs control in vivo at 1 mg/kg in the assay on Sarcoma-180 cells was 19%; in the assay on Colon-26 cells, 7%.
On to `COC(=O)c1c(C(F)(F)F)[nH]c2c1C13CC1CN(C(=O)c1cc4cc(OC)ccc4[nH]1)C3=CC2=O` (centres unmarked) [Example 22, Methyl 2-(5-methoxy-1H-indol-2-ylcarbonyl)-6-trifluoromethyl-1,2,8,8a-tetrahydrocyclopropa[c]pyrrolo[3,2-e]indole-4 (5H)-one-7-carboxylate], for which the IC50 in assay [1] (setting [2]) amounted to 0.23 ng/mL (≈ 0.474 nM). In addition, in the assay with P388 cells (i.p. 0.125 mg/kg single dose), the “T/C (average survival days, dosed vs. solvent-dosed control)” value is 169%.
For the compound `COC(=O)c1c(C(F)(F)F)[nH]c2c(O)cc3c(c12)C(CCl)CN3C(=O)c1cc2cc(OC)ccc2[nH]1` (centres unmarked) [Example 8, Methyl 1-chloromethyl-5-hydroxy-3-(5-methoxy-1H-indol-2-ylcarbonyl)-7-trifluoromethyl-1,2,3,6-tetrahydropyrrolo[3,2-e]indole-8-carboxylate], the IC50 in assay [1] (setting [2]) was determined as 0.21 ng/mL (≈ 0.402 nM). Further, in the assay on P388 cells (i.p. 1.0 mg/kg single dose), the “T/C (average survival days, dosed vs. solvent-dosed control)” value amounted to 198%.
As to `COC(=O)c1c(C(F)(F)F)[nH]c2c(O)cc3c(c12)C(CCl)CN3C(=O)c1cc2cc(NC(=O)c3cc4cc(OC)c(OC)c(OC)c4[nH]3)ccc2[nH]1` (centres unmarked) [Example 13, Methyl 1-chloromethyl-5-hydroxy-7-trifluoromethyl-3-[5-[(5,6,7-trimethoxy-1H-indol-2-ylcarbonyl)amino]-1H-indol-2-ylcarbonyl]-1,2,3,6-tetrahydropyrrolo[3,2-e]indole-8-carboxylate], in assay [1] (setting [2]), the IC50 came out at 0.21 ng/mL (≈ 0.284 nM). In addition, the response vs control in vivo at 0.25 mg/kg is 11% in the assay on Sarcoma-180 cells (setting [3]) and 17% in the assay with Colon-26 cells (setting [4]).
`COC(=O)c1c(C(F)(F)F)[nH]c2c(O)cc3c(c12)C(CCl)CN3C(=O)c1cc2cc(OC)c(OC)c(OC)c2[nH]1` (centres unmarked) [Example 6, methyl 1-chloromethyl-5-hydroxy-7-trifluoromethyl-3-(5,6,7-trimethoxy-1H-indol-2-ylcarbonyl)-1,2,3,6-tetrahydropyrrolo[3,2-e]indole-8-carboxylate]: in assay [1] (setting [2]), the IC50 turned out to be 0.24 ng/mL (≈ 0.412 nM). The “T/C (average survival days, dosed vs. solvent-dosed control)” value in the assay on P388 cells (i.p. 0.5 mg/kg single dose) came to 206%.
`COC(=O)c1c(C(F)(F)F)[nH]c2c(OC(=O)N3CCN(C)CC3)cc3c(c12)C(CCl)CN3C(=O)c1cc2cc(OC)c(OC)c(OC)c2[nH]1` (centres unmarked) [Example 46]: the IC50 in assay [1] (Mus musculus, P388, 72 h) amounted to 22 ng/mL (≈ 31.1 nM). Besides, the “T/C (average survival days, dosed vs. solvent-dosed control)” value with P388 cells (i.p. 4 mg/kg single dose) is recorded as 221%.
Regarding `COC(=O)c1c(C(F)(F)F)[nH]c2c(O)cc3c(c12)C(CBr)CN3C(=O)c1cc2cc(OC)c(OC)c(OC)c2[nH]1` (centres unmarked) [Example 34, methyl 1-bromomethyl-5-hydroxy-7-trifluoromethyl-3-(5,6,7-trimethoxy-1H-indol-2-ylcarbonyl)-1,2,3,6-tetrahydropyrrolo[3,2e]indole-8-carboxylate], the IC50 in assay [1] (setting [2]) amounted to 0.15 ng/mL (≈ 0.239 nM). Moreover, the “T/C (average survival days, dosed vs. solvent-dosed control)” value with P388 cells (i.p. 0.125 mg/kg single dose) is 189%. Besides, in the assay on Sarcoma-180 cells (setting [3]), the response vs control in vivo at 0.25 mg/kg came to 37%.
Turning to `COC(=O)c1c(C(F)(F)F)[nH]c2c(O)cc3c(c12)C(CBr)CN3C(=O)c1cc2cc(NC(=O)c3cc4ccccc4[nH]3)ccc2[nH]1` (centres unmarked) [Example 36, Methyl 1-bromomethyl-5-hydroxy-3-[5-[(1H-indol-2-ylcarbonyl)amino]-1H-indol-2-ylcarbonyl)-7-trifluoromethyl-1,2,3,6-tetrahydropyrrolo[3,2-e]indole-8-carboxylate], the IC50 in assay [1] (setting [2]) was determined as 1.3 ng/mL (≈ 1.87 nM). Further, the “T/C (average survival days, dosed vs. solvent-dosed control)” value with P388 cells (i.p. 0.125 mg/kg single dose) stood at 384%. For the same compound, in the assay on Sarcoma-180 cells (setting [3]), the response vs control in vivo at 0.25 mg/kg was 14%.
As for `COC(=O)c1c(C(F)(F)F)[nH]c2c(O)cc3c(c12)C(CCl)CN3C(=O)c1cc2cc(-c3cc4ccccc4o3)ccc2[nH]1` (centres unmarked) [Example 12], the response vs control in vivo at 1 mg/kg was determined as 11% in the assay on Sarcoma-180 cells (i.v. 1.0 mg/kg single dose, tumor weighed six days after dosage) and 16% in the assay with Colon-26 cells (i.v. 1.0 mg/kg single dose on sixth day, tumor weighed one week after dosage).
For `COC(=O)c1c(C(F)(F)F)[nH]c2c(O)cc3c(c12)C(CCl)CN3C(=O)c1cc2cc(NC(=O)c3cc4ccccc4cn3)ccc2[nH]1` (centres unmarked) [Example 17, Methyl 1-chloromethyl-5-hydroxy-3-[5-[(isoquinolin-3-ylcarbonyl)amino]-1H-indol-2-ylcarbonyl]-7trifluoromethyl-1,2,3,6-tetrahydropyrrolo[3,2-e]indole-8-carboxylate], the IC50 in assay [1] (setting [2]) stood at 0.09 ng/mL (≈ 0.136 nM). In addition, the response vs control in vivo at 0.25 mg/kg in the assay on Sarcoma-180 cells (setting [3]) was found to be 25%; in the assay with Colon-26 cells (setting [4]), 18%.
Turning to `COC(=O)c1c(C(F)(F)F)[nH]c2c(O)cc3c(c12)C(CCl)CN3C(=O)c1cc2cc(NC(=O)c3cnc4ccccc4c3)ccc2[nH]1` (centres unmarked) [Example 16, Methyl 1-chloromethyl-5-hydroxy-3-[5-[(quinoline-3-ylcarbonyl)amino]-1H-indol-2-ylcarbonyl]-7-trifluoromethyl-1,2,3,6-tetrahydropyrrolo[3,2-e]indole-8-carboxylate], in assay [1] (setting [2]), the IC50 turned out to be 0.16 ng/mL (≈ 0.242 nM). Besides, the response vs control in vivo at 0.5 mg/kg in the assay with Sarcoma-180 cells (setting [3]) was determined as 17%; in the assay on Colon-26 cells (setting [4]) it was 16%.
Turning to `COC(=O)c1c(C(F)(F)F)[nH]c2c(O)cc3c(c12)C(CCl)CN3C(=O)c1cc2cc(NC(=O)c3cc4c(OC)c(OC)c(OC)cc4[nH]3)ccc2[nH]1` (centres unmarked) [Example 14, Methyl 1-chloromethyl-5-hydroxy-7-trifluoromethyl-3-[5-[(4,5,6-trimethoxy1H-indol-2-ylcarbonyl)amino]-1H-indol-2-ylcarbonyl]-1,2,3,6-tetrahydropyrrolo[3,2-e]indole-8-carboxylate], the IC50 in assay [1] (setting [2]) worked out at 0.1 ng/mL (≈ 0.135 nM). Further, the response vs control in vivo at 0.5 mg/kg worked out at 7% with Sarcoma-180 cells (setting [3]) and 5% in the assay on Colon-26 cells (setting [4]).
